The target in assay [1] is T1, PTPN2 enzyme (Homo sapiens, UniProt P17706).
T1 sequence (P17706 1-415): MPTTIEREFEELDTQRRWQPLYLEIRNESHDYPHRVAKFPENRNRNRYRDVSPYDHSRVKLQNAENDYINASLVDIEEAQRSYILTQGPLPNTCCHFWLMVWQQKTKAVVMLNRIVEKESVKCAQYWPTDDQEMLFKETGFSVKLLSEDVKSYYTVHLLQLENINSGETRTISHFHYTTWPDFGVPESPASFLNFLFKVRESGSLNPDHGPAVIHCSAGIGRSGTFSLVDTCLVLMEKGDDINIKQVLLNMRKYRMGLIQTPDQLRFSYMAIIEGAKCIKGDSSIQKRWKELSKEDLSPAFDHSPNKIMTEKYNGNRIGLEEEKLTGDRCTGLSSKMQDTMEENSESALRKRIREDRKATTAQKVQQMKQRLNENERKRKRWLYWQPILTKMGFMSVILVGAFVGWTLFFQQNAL
Nature of the assay: PhosphoSens PTPN2 biochemical assay. The settings on record: substrate AQT0264 20 μM, room temperature; read-out: PTPN2 BCHEM IC50. The gist of the method: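 PhosphoSens fluorescence format with 20 μM final AQT0264 substrate and […] in 50 mM HEPES pH 7.5, 500 μM EGTA, […], 0.01% Brij-35, 1% glycerol, 1 mM DTT, 0.2 mg/mL BSA. Compounds in 3-fold dilution series; progress curves read (ex 360/em 480 nm) every 71 s for 1 h at room temperature.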

Assay [2] concerns phosphorylated STAT1 protein levels in B16-F10 cells. Briefly: Phospho-STAT1 (Tyr701) HTRF assay in IFN-gamma treated B16-F10 cells. The settings on record: mouse IFN-gamma 100 ng/mL, 1 hour, read-out: pSTAT1 HTRF B16 EC50. The class given is cell-based. In short, it runs like this:
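Mouse B16-F10 cells, 10,000/well, pretreated 1 h with compound (0.15% DMSO), then stimulated with mouse IFN-gamma at 100 ng/mL final for 1 h at 37 C. Phospho-STAT1 (Tyr701) measured by HTRF.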
Background: Time-resolved FRET reads energy transfer from a long-lived donor to a nearby acceptor.

The subject of assay [3] is B16-F10 cells. Nature of the assay: Cell proliferation assay (CellTiter-Glo) in IFN-gamma treated B16-F10 cells. The class given is cell-based. The settings on record: 120 h, mouse IFN-gamma 10 ng/mL, read-out: PTPN2 Prolif 5d B16F10 EC50. As to the method:
B16-F10 cells (ATCC, Manassas, VA, #CRL-6475) were cultured in DMEM growth medium (ThermoFisher Scientific, Waltham, MA, #11995-040) supplemented with 10% heat inactivated FBS (ThermoFisher Scientific, #16140-071) and 1% pen/strep (ThermoFisher Scientific, #15140-122). The cells were seeded into two white opaque 384-well tissue culture treated microplates (PerkinElmer, Waltham, MA, #6007688) at a density of 100 cells/well in 20 uL total volume and incubated overnight at 37 C and 5% CO2. 30 nL of compounds dissolved in DMSO were then transferred from a source plate into target wells with the Echo650 acoustic liquid handler (Beckman Coulter, Indianapolis, IN). Negative control wells received 30 nL of DMSO only (0.15% final concentration). Plates were returned to the incubator for 1 hour and then cells treated with either 5 uL of growth medium or 5 uL of growth medium containing 50 ng/mL of recombinant mouse IFN-gamma protein (R&D Systems, Minneapolis, MN, #485-MI/CF, 10 ng/mL final concentration) using the Assist automated pipetting platform (INTEGRA Biosciences, Hudson, NH). Plates were incubated at 37 C for 4 days and cell proliferation assayed with the CellTiter-Glo reagent (Promega, Madison, WI, #G7573, 25 uL per well). […] Off-target compound mediated cytotoxicity was identified by checking for growth inhibition in the absence of IFNg.

For orientation: IC50 means the concentration that inhibits the measured activity by half. As a reminder, the EC50 is the midpoint of the concentration-response curve.

As for `COCCN1CCN(c2cc(O)c(N3CC(=O)NS3(=O)=O)c(F)c2)CC1` [EXAMPLE 86, 5-(2-fluoro-6-hydroxy-4-(4-(2-methoxyethyl)piperazin-1-yl)phenyl)-1,2,5-thiadiazolidin-3-one 1,1-dioxide], the IC50 in assay [1] came out at 336 nM. Besides, the EC50 in assay [2] and in assay [3] was ≥ 15000 nM in each case.
`CN(C)c1ccc(-c2cc(O)c(N3CC(=O)NS3(=O)=O)c(F)c2)cn1` [EXAMPLE 29, 5-[4-[6-(dimethylamino)-3-pyridyl]-2-fluoro-6-hydroxy-phenyl]-1,1-dioxo-1,2,5-thiadiazolidin-3-one]: the IC50 in assay [1] was found to be 90 nM. The EC50 in assay [2] and in assay [3] was ≥ 15000 nM each time.
Take `CS(=O)(=O)N1CCC[C@H](NCc2cc(O)c(N3CC(=O)NS3(=O)=O)c(F)c2)C1` [EXAMPLE 75, 5-[2-fluoro-6-hydroxy-4-[[[(3S)-1-methylsulfonyl-3-piperidyl]amino]methyl]phenyl]-1,1-dioxo-1,2,5-thiadiazolidin-3-one]: in assay [1], the IC50 was 37 nM. Further, the EC50 came to 3220 nM in assay [2] and 2190 nM in assay [3].
Regarding `COCCN1CCN(Cc2cc(O)c(N3CC(=O)NS3(=O)=O)c(F)c2)CC1` [EXAMPLE 44, 5-(2-fluoro-6-hydroxy-4-((4-(2-methoxyethyl)piperazin-1-yl)methyl)phenyl)-1,2,5-thiadiazolidin-3-one 1,1-dioxide], in assay [1], the IC50 was found to be 131 nM. Besides, the EC50 in assay [2] and in assay [3] was ≥ 15000 nM each time.
Consider `CC(C)CCN1CCC[C@H](NCc2cc(O)c(N3CC(=O)NS3(=O)=O)c(F)c2)C1` [EXAMPLE 63, 5-[2-fluoro-6-hydroxy-4-[[[(3S)-1-isopentyl-3-piperidyl]amino]methyl]phenyl]-1,1-dioxo-1,2,5-thiadiazolidin-3-one], for which, in assay [1], the IC50 stood at 153 nM. The EC50 in assay [2] and in assay [3] was ≥ 15000 nM in each case.
`O=C1CN(c2c(O)cc(CNC3CCCCC3)cc2F)S(=O)(=O)N1` [EXAMPLE 34, 5-[4-[(cyclohexylamino)methyl]-2-fluoro-6-hydroxy-phenyl]-1,1-dioxo-1,2,5-thiadiazolidin-3-one]: the half-inhibitory concentration (IC50) in assay [1] was 90 nM. Moreover, the EC50 in assay [2] stood at 1740 nM; in assay [3], 1720 nM.
For `O=C1CN(c2c(O)cc(CNC3CCNCC3)cc2F)S(=O)(=O)N1` [EXAMPLE 39, 5-(2-fluoro-6-hydroxy-4-((piperidin-4-ylamino)methyl)phenyl)-1,2,5-thiadiazolidin-3-one 1,1-dioxide], in that order: 86 nM, ≥ 15000 nM and ≥ 15000 nM.
For the molecule `O=C1CN(c2c(O)cc(N3CCNCC3)cc2F)S(=O)(=O)N1` [EXAMPLE 85, 5-(2-fluoro-6-hydroxy-4-(piperazin-1-yl)phenyl)-1,2,5-thiadiazolidin-3-one 1,1-dioxide], the IC50 in assay [1] came out at 682 nM. Besides, the EC50 in assay [2] was 5480 nM; in assay [3] it was ≥ 15000 nM.
For `CC(=O)N[C@H]1CC[C@H](NCc2cc(O)c(N3CC(=O)NS3(=O)=O)c(F)c2)CC1` [EXAMPLE 60, N-((1r,4r)-4-((4-(1,1-dioxido-4-oxo-1,2,5-thiadiazolidin-2-yl)-3-fluoro-5-hydroxybenzyl)amino)cyclohexyl)acetamide] the same measures were 410 nM, ≥ 15000 nM and ≥ 15000 nM.
On to `COCCN1CCC(Nc2cc(O)c(N3CC(=O)NS3(=O)=O)c(F)c2)CC1` [EXAMPLE 90, 5-(2-fluoro-6-hydroxy-4-((1-(2-methoxyethyl)piperidin-4-yl)amino)phenyl)-1,2,5-thiadiazolidin-3-one 1,1-dioxide], for which, in assay [1], the IC50 came out at 2130 nM. Further, the EC50 in assay [2] and in assay [3] was ≥ 15000 nM in each case.
As to `O=C1CN(c2c(O)cc(-c3cnc4ccccc4c3)cc2F)S(=O)(=O)N1` [EXAMPLE 24, 5-[2-fluoro-6-hydroxy-4-(3-quinolyl)phenyl]-1,1-dioxo-1,2,5-thiadiazolidin-3-one], in assay [1], the IC50 was determined as 190 nM. The EC50 in assay [2] and in assay [3] was ≥ 15000 nM throughout.
On to `O=C1CN(c2c(O)cc(-c3cccc(Oc4ccccc4)c3)cc2F)S(=O)(=O)N1` [EXAMPLE 14, 5-[2-fluoro-6-hydroxy-4-(3-phenoxyphenyl)phenyl]-1,1-dioxo-1,2,5-thiadiazolidin-3-one], for which the IC50 in assay [1] was 2210 nM. Also, the EC50 in assay [2] and in assay [3] was ≥ 15000 nM throughout.
In the case of `CC(C)CC(=O)N1CCN(Cc2cc(O)c(N3CC(=O)NS3(=O)=O)c(F)c2)CC1` [EXAMPLE 36, 5-(2-fluoro-6-hydroxy-4-((4-(3-methylbutanoyl)piperazin-1-yl)methyl)phenyl)-1,2,5-thiadiazolidin-3-one 1,1-dioxide], the IC50 in assay [1] stood at 79 nM. Further, the EC50 in assay [2] and in assay [3] was ≥ 15000 nM throughout.
`O=C1CN(c2c(O)cc(-c3ccc(O)nc3)cc2F)S(=O)(=O)N1` [EXAMPLE 26, 5-[2-fluoro-6-hydroxy-4-(6-hydroxy-3-pyridyl)phenyl]-1,1-dioxo-1,2,5-thiadiazolidin-3-one]: in assay [1], the 50% inhibitory concentration (IC50) stood at 10 nM. For the same molecule, the EC50 in assay [2] worked out at 2180 nM; in assay [3] it was 3110 nM.
For `O=C1CN(c2c(O)cc(-c3ccc(C4CC4)cc3)cc2F)S(=O)(=O)N1` [EXAMPLE 17, 5-[4-(4-cyclopropylphenyl)-2-fluoro-6-hydroxy-phenyl]-1,1-dioxo-1,2,5-thiadiazolidin-3-one] the same measures were 1410 nM, 7950 nM and ≥ 15000 nM.
As for `CN(Cc1cc(O)c(N2CC(=O)NS2(=O)=O)c(F)c1)C1CCCCC1` [EXAMPLE 43, 5-(4-((cyclohexyl(methyl)amino)methyl)-2-fluoro-6-hydroxyphenyl)-1,2,5-thiadiazolidin-3-one 1,1-dioxide], the IC50 in assay [1] turned out to be 239 nM. Also, the results for the EC50 in assay [2] and in assay [3] were 4270 nM and 4350 nM, respectively.
For `CC1(C)CCC[C@@H](NCc2cc(O)c(N3CC(=O)NS3(=O)=O)c(F)c2)C1` [EXAMPLE 51, 5-[4-[[[(1R)-3,3-dimethylcyclohexyl]amino]methyl]-2-fluoro-6-hydroxy-phenyl]-1,1-dioxo-1,2,5-thiadiazolidin-3-one], in that order: 35 nM, 1150 nM and 656 nM.
In the case of `O=C1CN(c2c(O)cc(-c3cccc(-c4ccccc4)c3)cc2F)S(=O)(=O)N1` [EXAMPLE 11, 5-[2-fluoro-6-hydroxy-4-(3-phenylphenyl)phenyl]-1,1-dioxo-1,2,5-thiadiazolidin-3-one], the IC50 in assay [1] turned out to be 1340 nM. Moreover, the EC50 in assay [2] and in assay [3] was ≥ 15000 nM in each case.
Turning to `CC(C)CCN1CCC[C@@H](NCc2cc(O)c(N3CC(=O)NS3(=O)=O)c(F)c2)C1` [EXAMPLE 62, (R)-5-(2-fluoro-6-hydroxy-4-(((1-isopentylpiperidin-3-yl)amino)methyl)phenyl)-1,2,5-thiadiazolidin-3-one 1,1-dioxide], the IC50 in assay [1] came out at 88 nM. For the same molecule, the concentration for a half-maximal effect (EC50) in assay [2] was ≥ 15000 nM; in assay [3], 14600 nM.
Take `CN1CCC(c2ccc(O)c(N3CC(=O)NS3(=O)=O)c2F)CC1` [EXAMPLE 106, 5-(2-fluoro-6-hydroxy-3-(1-methylpiperidin-4-yl)phenyl)-1,2,5-thiadiazolidin-3-one 1,1-dioxide]: in assay [1], the IC50 was 4470 nM. The EC50 in assay [2] and in assay [3] was ≥ 15000 nM throughout.
As for `O=C(O)CC(=O)N1CCC[C@H](NCc2cc(O)c(N3CC(=O)NS3(=O)=O)c(F)c2)C1` [EXAMPLE 76, 3-[(3S)-3-[[3-fluoro-5-hydroxy-4-(1,1,4-trioxo-1,2,5-thiadiazolidin-2-yl)phenyl]methylamino]-1-piperidyl]-3-oxo-propanoic acid], the half-maximal inhibitory concentration (IC50) in assay [1] came to 12 nM. Also, the concentration for a half-maximal effect (EC50) in assay [2] and in assay [3] was ≥ 15000 nM throughout.
